Test [1] has as its target T1, YahK (Escherichia coli, UniProt P75691).
T1 sequence (P75691 1-349): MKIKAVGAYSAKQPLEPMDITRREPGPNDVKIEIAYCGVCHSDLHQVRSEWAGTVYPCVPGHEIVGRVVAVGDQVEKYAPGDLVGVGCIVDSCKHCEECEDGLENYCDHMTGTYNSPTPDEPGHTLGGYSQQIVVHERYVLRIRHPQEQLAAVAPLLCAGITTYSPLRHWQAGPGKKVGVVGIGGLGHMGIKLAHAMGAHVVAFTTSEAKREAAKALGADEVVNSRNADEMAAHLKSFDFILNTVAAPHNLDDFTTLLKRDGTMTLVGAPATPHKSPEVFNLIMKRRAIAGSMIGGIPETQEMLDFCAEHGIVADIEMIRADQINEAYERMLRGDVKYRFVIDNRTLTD
Briefly: NADH consumption at […] nm, specific activity. Type of test: biochemical. As to conditions: 5 mM substrate, 0.2 mM NADH, 100 mM PBS pH 8.0, 30°C.

In test [2] the target is AdhE (Escherichia coli, UniProt P0A9Q7). Briefly: NADH consumption at […] nm, specific activity. It is filed as biochemical. Conditions: 5 mM substrate, 0.2 mM NADH, 100 mM PBS pH 8.0, 30°C.
For test [3], the system named is OYE2p. Conditions: read-out: Enzyme / Y84V, 100 mM PBS pH 8.0, 30°C.

4 molecules from paper PMC9049607 (Microbial Biotechnology, 2021) can be followed below.

Molecules are shown by their SMILES. Read-outs that look alike come from different tables or passages of the source.

Sequence of AdhE (P0A9Q7 2-891): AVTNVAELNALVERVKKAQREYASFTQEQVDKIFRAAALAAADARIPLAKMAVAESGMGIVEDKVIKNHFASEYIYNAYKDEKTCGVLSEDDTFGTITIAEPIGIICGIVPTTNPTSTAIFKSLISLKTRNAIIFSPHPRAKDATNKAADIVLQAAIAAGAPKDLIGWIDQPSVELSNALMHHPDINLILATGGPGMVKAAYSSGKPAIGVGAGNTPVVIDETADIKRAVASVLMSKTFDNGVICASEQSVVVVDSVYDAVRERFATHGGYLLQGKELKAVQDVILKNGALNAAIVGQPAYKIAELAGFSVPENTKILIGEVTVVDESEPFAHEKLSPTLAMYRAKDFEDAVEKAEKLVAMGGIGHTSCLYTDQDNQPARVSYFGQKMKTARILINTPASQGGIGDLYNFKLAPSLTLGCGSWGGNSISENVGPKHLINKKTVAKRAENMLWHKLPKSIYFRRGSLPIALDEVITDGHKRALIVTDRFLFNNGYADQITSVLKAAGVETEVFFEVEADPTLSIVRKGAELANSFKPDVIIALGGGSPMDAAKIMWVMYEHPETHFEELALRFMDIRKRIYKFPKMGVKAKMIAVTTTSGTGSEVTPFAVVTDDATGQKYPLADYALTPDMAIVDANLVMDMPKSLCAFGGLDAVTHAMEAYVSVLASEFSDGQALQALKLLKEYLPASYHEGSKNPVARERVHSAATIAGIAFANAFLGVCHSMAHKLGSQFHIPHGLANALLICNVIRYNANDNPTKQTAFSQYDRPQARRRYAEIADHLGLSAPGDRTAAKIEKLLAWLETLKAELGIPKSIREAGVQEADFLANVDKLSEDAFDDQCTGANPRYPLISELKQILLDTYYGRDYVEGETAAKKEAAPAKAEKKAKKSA

In the case of `CC(C)=CCCC(C)CC=O` (stereo not drawn) [citronellal], the “NADH consumption at 340 nm, specific activity” value was “approximately twice higher than that of AdhE and YahK” in test [1]; “approximately twice higher than that of AdhE and YahK” in test [2].

For `CC(C)=CCC/C(C)=C\C=O` [(Z)-citral], in test [3] (0.2 mM NADH), the Km was 326 ± 84 µM.

`CC(C)=CCC/C(C)=C/C=O` [(E)-citral]: in test [3] (0.2 mM NADH), the Km turned out to be 107 ± 26 µM. For the same molecule, the “NADH consumption at 340 nm, specific activity” value in test [2] is recorded as “these enzymes have catalytic activity for the tested substrates”.

`NC(=O)C1=CN([C@@H]2O[C@H](COP(=O)(O)OP(=O)(O)OC[C@H]3O[C@@H](n4cnc5c(N)ncnc54)[C@H](O)[C@@H]3O)[C@@H](O)[C@H]2O)C=CC1` [NADH]: the Km in test [3] (5 mM (E/Z)-citral) is 27 ± 8 µM.
